Test results taken from patent US20070249670A1, “Glycogen Phosphorylase Inhibitor Compounds and Pharmaceutical Compositions Thereof” (SMITHKLINE BEECHAM CORPORATION, priority 2004, published 2007).
pIC50: −log10 of the molar value.

biological target: T1, human liver glycogen phosphorylase a (HLGPa) (Homo sapiens, UniProt P06737); assay: Human liver glycogen phosphorylase a enzymatic activity assay (coupled, fluorescent resorufin readout, with and without 10 mM glucose); assay type: biochemical; conditions: human liver glycogen phosphorylase a; table does not say whether with or without 10 mM glucose
T1 construct: creating a full-length cDNA fused at the 5′ end to codons for methionine-glycine-alanine-histidine; 6xHis tag (leader Met-Gly-Ala-His6-Gly-Gly) (N); made in house; host or cells: E. coli (bacterial expression plasmid pTXK1007LTev)
T1 sequence (P06737 2-847 limits assumed): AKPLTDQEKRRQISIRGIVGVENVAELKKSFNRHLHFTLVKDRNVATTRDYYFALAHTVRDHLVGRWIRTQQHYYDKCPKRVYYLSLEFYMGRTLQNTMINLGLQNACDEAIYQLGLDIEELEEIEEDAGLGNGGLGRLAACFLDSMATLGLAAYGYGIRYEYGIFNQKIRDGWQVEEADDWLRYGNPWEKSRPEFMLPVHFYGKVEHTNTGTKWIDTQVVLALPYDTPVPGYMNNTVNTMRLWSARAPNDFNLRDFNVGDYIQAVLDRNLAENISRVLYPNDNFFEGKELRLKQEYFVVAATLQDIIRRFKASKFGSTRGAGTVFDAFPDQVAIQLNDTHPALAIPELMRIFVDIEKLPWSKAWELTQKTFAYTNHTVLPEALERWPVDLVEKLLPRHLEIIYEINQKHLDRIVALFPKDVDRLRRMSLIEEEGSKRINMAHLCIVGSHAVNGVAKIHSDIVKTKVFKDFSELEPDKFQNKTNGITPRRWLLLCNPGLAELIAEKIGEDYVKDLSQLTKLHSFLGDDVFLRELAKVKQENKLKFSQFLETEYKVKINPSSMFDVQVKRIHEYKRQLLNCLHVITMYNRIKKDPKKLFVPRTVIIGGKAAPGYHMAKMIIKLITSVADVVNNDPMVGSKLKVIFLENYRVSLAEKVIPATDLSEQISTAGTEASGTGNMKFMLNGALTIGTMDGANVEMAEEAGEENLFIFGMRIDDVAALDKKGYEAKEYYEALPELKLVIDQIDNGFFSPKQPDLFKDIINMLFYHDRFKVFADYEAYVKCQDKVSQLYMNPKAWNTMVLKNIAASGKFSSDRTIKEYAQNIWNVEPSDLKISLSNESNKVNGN

| SMILES | pIC50 |
| --- | --- |
| COc1ccc(-c2cnc(C(=O)N[C@H](C(=O)O)C3CCCCC3)c(NC(=O)Nc3c(C)cc(C)cc3C)c2)cc1 [Example 322, (2S)-Cyclohexyl({[5-[4-(methyloxy)phenyl]-3-({[(2,4,6-trimethylphenyl)amino]carbonyl}amino)-2-pyridinyl]carbonyl}amino)ethanoic acid] | 7.08 |
| COc1ccc(-c2cnc(C(=O)N[C@H](C(=O)O)[C@@H](C)OC(C)(C)C)c(NC(=O)Nc3c(C)cc(C)cc3C)c2)cc1 [Example 323, O-(1,1-dimethylethyl)-N-{[5-[4-(methyloxy)phenyl]-3-({[(2,4,6-trimethylphenyl)amino]carbonyl}amino)-2-pyridinyl]carbonyl}-L-threonine] | 6.77 |
| Cc1cc(C)c(NC(=O)Nc2cc(-c3ccc(F)c(F)c3)cnc2C(=O)N[C@H](C(=O)O)[C@@H](C)OC(C)(C)C)c(C)c1 [Example 324, N-{[5-(3,4-Difluorophenyl)-3-({[(2,4,6-trimethylphenyl)amino]carbonyl}amino)-2-pyridinyl]carbonyl}-O-(1,1-dimethylethyl)-L-threonine] | 6.33 |
| COc1ccc(-c2cnc(C(=O)NC3(C(=O)O)CCCCCC3)c(NC(=O)Nc3c(C)cc(C)cc3C)c2)cc1 [Example 325, 1-({[5-[4-(methyloxy)phenyl]-3-({[(2,4,6-trimethylphenyl)amino]carbonyl}amino)-2-pyridinyl]carbonyl}amino)cycloheptanecarboxylic acid] | 7.51 |
| O=C(Nc1c(Cl)cc(Cl)cc1Cl)Nc1c(C(=O)N[C@H](C(=O)O)C2CCCCC2)oc2cc(Br)ccc12 [Example 326, (2S)-({[6-Bromo-3-({[(2,4,6-trichlorophenyl)amino]carbonyl}amino)-1-benzofuran-2-yl]carbonyl}amino)(cyclohexyl)ethanoic acid] | 5.13 |
| O=C(Nc1c(Cl)cccc1Cl)Nc1c(C(=O)N[C@H](C(=O)O)C2CCCCC2)oc2cc(Br)ccc12 [Example 327, (2S)-({[6-Bromo-3-({[(2,6-dichlorophenyl)amino]carbonyl}amino)-1-benzofuran-2-yl]carbonyl}amino)(cyclohexyl)ethanoic acid] | 5.01 |
| Cc1cc(C)c(NC(=O)Nc2cc3ccccc3cc2C(=O)NCC2CCCCC2)c(C)c1 [Example 330, N-(cyclohexylmethyl)-3-({[(2,4,6-trimethylphenyl)amino]carbonyl}amino)-2-naphthalenecarboxamide] | 4.84 |
| O=C(O)CCN(Cc1ccccc1)C(=O)c1cc2ccccc2cc1NC(=O)Nc1c(Cl)cccc1Cl [Example 331, N-{[3-({[(2,6-dichlorophenyl)amino]carbonyl}amino)-2-naphthalenyl]carbonyl}-N-(phenylmethyl)-beta-alanine] | 5.66 |
| O=C(O)CN(Cc1ccccc1)C(=O)c1cc2ccccc2cc1NC(=O)Nc1c(Cl)cc(Cl)cc1Cl [Example 332, N-(phenylmethyl)-N-{[3-({[(2,4,6-trichlorophenyl)amino]carbonyl}amino)-2-naphthalenyl]carbonyl}glycine] | 5.36 |
| O=C(Nc1cc2ccccc2cc1C(=O)N1CCCC(C(=O)O)C1)Nc1c(Cl)cccc1Cl (stereo not drawn) [Example 333, 1-{[3-({[(2,6-Dichlorophenyl)amino]carbonyl}amino)-2-naphthalenyl]carbonyl}-3-piperidinecarboxylic acid] | 5.03 |
| Cc1cccc(C)c1NC(=O)Nc1cc2ccccc2cc1C(=O)N1CCC[C@H]1C(=O)O [Example 334, 1-{[3-({[(2,6-dimethylphenyl)amino]carbonyl}amino)-2-naphthalenyl]carbonyl}-L-proline] | 6.38 |
| Cc1cc(C)c(NC(=O)Nc2cc3ccccc3cc2C(=O)N[C@H](CC(=O)O)c2ccccc2)c(C)c1 [Example 336, (3R)-3-phenyl-3-({[3-({[(2,4,6-trimethylphenyl)amino]carbonyl}amino)-2-naphthalenyl]carbonyl}amino)propanoic acid] | 6.21 |
| Cc1cc(C)c(NC(=O)Nc2cc3ccccc3cc2C(=O)N[C@H](CC(=O)OC(C)(C)C)C2CCCCC2)c(C)c1 [Example 337, 1,1-dimethylethyl (3R)-3-cyclohexyl-3-({[3-({[(2,4,6-trimethylphenyl)amino]carbonyl}amino)-2-naphthalenyl]carbonyl}amino)propanoate] | 5.28 |
| Cc1cc(C)c(NC(=O)Nc2cc3ccccc3cc2C(=O)N[C@H](CC(=O)O)C2CCCCC2)c(C)c1 [Example 338, (3R)-3-cyclohexyl-3-({[3-({[(2,4,6-trimethylphenyl)amino]carbonyl}amino)-2-naphthalenyl]carbonyl}amino)propanoic acid] | 5.67 |
| Cc1cc(C)c(NC(=O)Nc2cc3ccccc3cc2C(=O)N[C@H](CC(=O)O)C(C)C)c(C)c1 [Example 339, (3R)-4-methyl-3-({[3-({[(2,4,6-trimethylphenyl)amino]carbonyl}amino)-2-naphthalenyl]carbonyl}amino)pentanoic acid] | 5.81 |
| Cc1cc(C)c(NC(=O)Nc2cc3ccccc3cc2C(=O)N[C@H](c2nnn[nH]2)C(C)C)c(C)c1 [Example 340, N-[(1S)-2-methyl-1-(1H-tetrazol-5-yl)propyl]-3-({[(2,4,6-trimethylphenyl)amino]carbonyl}amino)-2-naphthalenecarboxamide] | 6.47 |
| Cc1cc(C)c(NC(=O)Nc2cc3ccccc3cc2C(=O)N[C@H](C#N)C2CCC(F)(F)CC2)c(C)c1 [Example 342, N—[(S)-cyano(4,4-difluorocyclohexyl)methyl]-3-({[(2,4,6-trimethylphenyl)amino]carbonyl}amino)-2-naphthalenecarboxamide] | 5.07 |
| O=C(Nc1cc2ccccc2cc1C(=O)N[C@H](C(=O)O)C1CCCC1)Nc1c(Cl)cc(Cl)cc1Cl [Example 343, (2S)-cyclopentyl({[3-({[(2,4,6-trichlorophenyl)amino]carbonyl}amino)-2-naphthalenyl]carbonyl}amino)ethanoic acid] | 6.89 |
| Cc1cc(C)c(NC(=O)Nc2cc3ccccc3cc2C(=O)N[C@@H](CC(=O)OC(C)(C)C)C(=O)OC(C)(C)C)c(C)c1 [Example 353, bis(1,1-dimethylethyl) N-{[3-({[(2,4,6-trimethylphenyl)amino]carbonyl}amino)-2-naphthalenyl]carbonyl}-L-aspartate] | 5.29 |
| Cc1cc(C)c(NC(=O)Nc2cc3ccccc3cc2C(=O)N[C@@H](CC(=O)O)C(=O)O)c(C)c1 [Example 354, N-{[3-({[(2,4,6-trimethylphenyl)amino]carbonyl}amino)-2-naphthalenyl]carbonyl}-L-aspartic acid] | 7.21 |
| O=C(O)C[C@H](NC(=O)c1cc2ccccc2cc1NC(=O)Nc1c(Cl)cc(OC(F)(F)F)cc1Cl)C(=O)O [Example 355, N-[(3-{[({2,6-dichloro-4-[(trifluoromethyl)oxy]phenyl}amino)carbonyl]amino}-2-naphthalenyl)carbonyl]-L-aspartic acid] | 7.85 |
| Cc1cc(C)c(NC(=O)Nc2cc3ccccc3cc2C(=O)N[C@H](CC(=O)O)C(=O)O)c(C)c1 [Example 356, N-{[3-({[(2,4,6-trimethylphenyl)amino]carbonyl}amino)-2-naphthalenyl]carbonyl}-D-aspartic acid] | 7.00 |
| Cc1cc(C)c(NC(=O)Nc2cc3ccccc3cc2C(=O)N2CCC[C@@H]2C(=O)O)c(C)c1 [Example 357, 1-{[3-({[(2,4,6-trimethylphenyl)amino]carbonyl}amino)-2-naphthalenyl]carbonyl}-D-proline] | 5.61 |
| Cc1cc(C)c(NC(=O)Nc2cc3ccccc3cc2C(=O)N[C@H](C(=O)O)[C@H]2CCCC(O)C2)c(C)c1 (stereo partly drawn) [Example 359, (2S)-[(1S)-3-hydroxycyclohexyl]({[3-({[(2,4,6-trimethylphenyl)amino]carbonyl}amino)-2-naphthalenyl]carbonyl}amino)ethanoic acid] | 8.22 |
| Cc1cc(C)c(NC(=O)Nc2cc3ccccc3cc2C(=O)N[C@H](C(=O)O)[C@H]2CCCC(OC(=O)C(F)(F)F)C2)c(C)c1 (stereo partly drawn) [Example 360, (2S)-{(1S)-3-[(trifluoroacetyl)oxy]cyclohexyl}({[3-({[(2,4,6-trimethylphenyl)amino]carbonyl}amino)-2-naphthalenyl]carbonyl}amino)ethanoic acid] | 7.96 |
| COc1ccc(-c2ccc(C(=O)N[C@@H](CC(=O)OC(C)(C)C)C(=O)OC(C)(C)C)c(NC(=O)Nc3c(C)cc(C)cc3C)c2)cc1 [Example 361, bis(1,1-dimethylethyl) N-{[4′-(methyloxy)-3-({[(2,4,6-trimethylphenyl)amino]carbonyl}amino)-4-biphenylyl]carbonyl}-L-aspartate] | 5.22 |
| COc1ccc(-c2ccc(C(=O)N[C@@H](CC(=O)O)C(=O)O)c(NC(=O)Nc3c(C)cc(C)cc3C)c2)cc1 [Example 362, N-{[4′-(methyloxy)-3-({[(2,4,6-trimethylphenyl)amino]carbonyl}amino)-4-biphenylyl]carbonyl}-L-aspartic acid] | 8.22 |
